ChEMBL document CHEMBL1138105, “Highly potent and selective zwitterionic agonists of the delta-opioid receptor. Part 1” (Bioorg Med Chem Lett, 2006)
The source made the active and inactive calls. The calls are words filed in the database; no cut-off is given here.

Experiments:
[1] = target: Kappa-type opioid receptor (Cavia porcellus, UniProt P41144); test: Agonist activity at kappa opioid receptor in myenteric plexus muscle from guinea pig; assay type: functional
[2] = target: Delta-type opioid receptor (Mus musculus, UniProt P32300)
Delta-type opioid receptor (Mus musculus, UniProt P32300), sequence (P32300 whole entry): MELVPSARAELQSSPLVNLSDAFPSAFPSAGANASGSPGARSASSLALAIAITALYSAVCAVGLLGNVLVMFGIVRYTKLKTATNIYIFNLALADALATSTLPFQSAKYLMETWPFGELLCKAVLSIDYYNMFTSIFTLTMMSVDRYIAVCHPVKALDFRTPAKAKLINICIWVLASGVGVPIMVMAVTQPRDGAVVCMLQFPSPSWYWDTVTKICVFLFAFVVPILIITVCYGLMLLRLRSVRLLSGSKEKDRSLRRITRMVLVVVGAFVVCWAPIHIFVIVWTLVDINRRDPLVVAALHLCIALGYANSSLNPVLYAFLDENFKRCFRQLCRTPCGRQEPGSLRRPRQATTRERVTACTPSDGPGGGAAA
Description: Agonist activity at delta opioid receptor in mouse vas deferens

Mu-type opioid receptor = Mu-type opioid receptor (Cavia porcellus, UniProt P97266); test: Agonist activity at mu opioid receptor in myenteric plexus muscle from guinea pig; assay type: functional
Mu-type opioid receptor, sequence (P97266 whole entry): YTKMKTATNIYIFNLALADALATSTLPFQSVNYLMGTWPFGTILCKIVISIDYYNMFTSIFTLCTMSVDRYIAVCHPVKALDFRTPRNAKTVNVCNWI

[3] = Distribution coefficient of the compound, log D at pH 7.4; assay type: physicochemical; conditions: octanol/water
Mus musculus [4] = test: Effect on locomotor activity in mouse hyper locomotion model at 1000 ug/kg, iv; assay type: functional, organism-based
Mus musculus [5] = test: Effect on locomotor activity in mouse hyper locomotion model at 400 ug/kg, iv; assay type: functional, organism-based
[6] = Volume of distribution in dog; assay type: ADME, organism-based, Canis lupus familiaris; conditions: in vivo, read-out: Vdss
[7] = Plasma clearance in dog; assay type: ADME, organism-based, Canis lupus familiaris
[8] = Oral bioavailability in dog; assay type: ADME, organism-based, Canis lupus familiaris; conditions: in vivo
[9] = target: Delta-type opioid receptor (Homo sapiens, UniProt P41143); test: Binding affinity at human delta opioid receptor expressed in CHO cells; assay type: cell-based, Cricetulus griseus
Delta-type opioid receptor (Homo sapiens, UniProt P41143), sequence (P41143 whole entry): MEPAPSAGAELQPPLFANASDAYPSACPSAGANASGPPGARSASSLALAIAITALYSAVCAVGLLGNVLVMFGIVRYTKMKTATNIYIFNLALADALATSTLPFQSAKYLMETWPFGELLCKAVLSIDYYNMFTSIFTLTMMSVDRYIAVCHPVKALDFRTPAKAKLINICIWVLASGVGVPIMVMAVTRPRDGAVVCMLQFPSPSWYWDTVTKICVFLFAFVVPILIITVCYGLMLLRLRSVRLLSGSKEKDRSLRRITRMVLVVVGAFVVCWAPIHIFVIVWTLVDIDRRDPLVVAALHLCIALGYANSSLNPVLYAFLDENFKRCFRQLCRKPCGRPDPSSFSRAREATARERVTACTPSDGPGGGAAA

Mus musculus [10] = test: Effect on locomotor activity in mouse hyper locomotion model at 100 ug/kg, iv; assay type: functional, organism-based

Kappa-type opioid receptor, sequence (P41144 whole entry): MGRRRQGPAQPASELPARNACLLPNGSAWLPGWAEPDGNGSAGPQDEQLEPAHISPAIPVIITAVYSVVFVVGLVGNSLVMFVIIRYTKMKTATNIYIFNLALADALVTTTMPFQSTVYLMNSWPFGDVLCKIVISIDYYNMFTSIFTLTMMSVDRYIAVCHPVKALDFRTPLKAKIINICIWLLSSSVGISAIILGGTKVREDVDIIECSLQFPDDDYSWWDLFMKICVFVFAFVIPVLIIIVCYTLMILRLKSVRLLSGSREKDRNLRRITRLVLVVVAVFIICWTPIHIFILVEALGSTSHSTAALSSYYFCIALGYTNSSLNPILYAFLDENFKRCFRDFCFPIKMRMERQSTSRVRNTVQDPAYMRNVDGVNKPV

SMILES	IC50 [1] [nM]	IC50 [2] [nM]	IC50 (Mu-type opioid receptor) [nM]	logD [3]	further results
C[C@@H]1CN([C@@H](c2cccc(O)c2)c2ccc3c(c2)CN(CC(=O)O)C3)[C@@H](C)CN1Cc1ccccc1	1260	0.501	126		
C[C@@H]1CN([C@@H](c2cccc(O)c2)c2ccc3c(c2)CN(CCC(=O)O)CC3)[C@@H](C)CN1Cc1ccccc1	5010	0.00501	1000	2.1	
C[C@@H]1CN([C@@H](c2cccc(O)c2)c2ccc3c(c2)CN(C(=O)c2cccc(C(=O)O)c2)C3)[C@@H](C)CN1Cc1ccccc1	1260	1.58	100		
C[C@@H]1CN([C@H](c2ccc(CC(=O)O)cc2)c2cccc(O)c2)[C@@H](C)CN1Cc1ccccc1		0.158		1.1	Activity (Mus musculus [4]): Active
C[C@@H]1CN([C@H](c2ccc(-c3ccccc3C(=O)O)cc2)c2cccc(O)c2)[C@@H](C)CN1Cc1ccccc1		0.02		2.3	
C[C@@H]1CN([C@@H](c2cccc(O)c2)c2ccc3c(c2)CN(C(=O)C(=O)O)CC3)[C@@H](C)CN1Cc1ccccc1	398	0.00158	200	1.6	
C=CCN1C[C@H](C)N([C@H](c2ccc(C(=O)N(CC)CC)cc2)c2cccc(OC)c2)C[C@H]1C [SNC-80]	1260		> 10000		Activity (Mus musculus [5]): Active
COc1cccc([C@@H](c2ccc3c(c2)CN(CC(=O)O)C3)N2C[C@@H](C)N(Cc3ccccc3)C[C@@H]2C)c1		25.1			
COc1cccc([C@@H](c2ccc3c(c2)CN(CCC(=O)O)CC3)N2C[C@@H](C)N(Cc3ccccc3)C[C@@H]2C)c1	1000	12.6	> 10000	2.3	
C[C@@H]1CN([C@@H](c2ccccc2)c2ccc3c(c2)CN(CCC(=O)O)C3)[C@@H](C)CN1Cc1ccccc1		63.1			
C[C@@H]1CN([C@@H](c2cccc(O)c2)c2ccc3c(c2)CN(C(=O)CC(=O)O)CC3)[C@@H](C)CN1Cc1ccccc1	398	0.001	200	0.4	
C[C@@H]1CN([C@@H](c2cccc(O)c2)c2ccc3c(c2)CN(CCC(=O)O)C3)[C@@H](C)CN1Cc1ccccc1	7940	1	631		
COc1cccc([C@@H](c2ccc3c(c2)CN(CC(=O)O)CC3)N2C[C@@H](C)N(Cc3ccccc3)C[C@@H]2C)c1	1260	2	5010	2.5	Vd [6]: 5.4 L/kg; clearance [7]: 17 mL/min/kg; bioavailability [8]: 20%; IC50 [9]: 5.01 nM
C[C@@H]1CN([C@@H](c2cccc(O)c2)c2ccc3c(c2)CN(CC(=O)O)CC3)[C@@H](C)CN1Cc1ccccc1	1000	0.0398	316	2.1	
C[C@@H]1CN([C@@H](c2cccc(F)c2)c2ccc3c(c2)CN(CCC(=O)O)C3)[C@@H](C)CN1Cc1ccccc1		25.1			
COc1cccc([C@@H](c2ccc3c(c2)CN(CCC(=O)O)C3)N2C[C@@H](C)N(Cc3ccccc3)C[C@@H]2C)c1	> 10000	631	> 10000		
C[C@@H]1CN([C@@H](c2cccc(F)c2)c2ccc3c(c2)CN(CCC(=O)O)CC3)[C@@H](C)CN1Cc1ccccc1		100			
C[C@@H]1CN([C@@H](c2cccc(O)c2)c2ccc3c(c2)CN(Cc2ccccc2C(=O)O)C3)[C@@H](C)CN1Cc1ccccc1		3.16			
C[C@@H]1CN([C@H](c2ccc(CCC(=O)O)cc2)c2cccc(O)c2)[C@@H](C)CN1Cc1ccccc1		0.126		2.1	Activity (Mus musculus [10]): Active
C[C@@H]1CN([C@@H](c2cccc(F)c2)c2ccc3c(c2)CN(C(=O)CC(=O)O)CC3)[C@@H](C)CN1Cc1ccccc1		20			
C=CCN1C[C@H](C)N([C@H](c2ccc(C(=O)N(CC)CC)cc2)c2cccc(O)c2)C[C@H]1C		0.631			
COc1cccc([C@@H](c2ccc3c(c2)CN(C(=O)CC(=O)O)CC3)N2C[C@@H](C)N(Cc3ccccc3)C[C@@H]2C)c1		15.8		1.3	
C[C@@H]1CN([C@@H](c2cccc(O)c2)c2ccc3c(c2)CN(C(=O)c2ccccc2C(=O)O)C3)[C@@H](C)CN1Cc1ccccc1	3980	0.316	50.1		
